Structures are written as SMILES. Values joined by “and” are separate entries in the source; they are usually repeats but may differ in a detail not shown here. Equal values may be shown once.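 96-well plates; 48 h exposure; 5 concentrations. Endpoints by linear interpolation between flanking doses. Not reached: highest tested concentration assigned. At the GI50, growth is halved. TGI: total growth inhibition.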

Among the data in PubChem BioAssay (NCI) are GI50 and TGI values, retold here.

Test systems include MCF7 breast; NCI/ADR-RES ovarian; MDA-MB-435; HS 578T breast; T-47D breast; MDA-MB-231 breast.
Holding throughout (experiment): NCI tumour cell line growth inhibition, 48 h

As for `C=C1C(=O)O[C@@H]2C[C@@H]1CC[C@]1(C)O[C@H]1CC[C@@]1(C)O[C@@H]1CC[C@@]2(C)O`, the GI50 in the experiment with MCF7 breast was 99.8 µM; with NCI/ADR-RES ovarian, 20.1 µM; with MDA-MB-435 it was 33 µM; in the experiment with HS 578T breast it was 22.7 µM; in the experiment on T-47D breast, 12.2 µM; in the experiment with MDA-MB-231 breast it was 25.1 µM. For the same molecule, the TGI in the experiment with MCF7 breast was over 100 µM; in the experiment with NCI/ADR-RES ovarian, 46.9 µM; with MDA-MB-435, over 100 µM; with HS 578T breast it was 67.3 µM; in the experiment with T-47D breast it was 33.3 µM; with MDA-MB-231 breast, 68.4 µM.
As to `COc1cccc(-c2nn(-c3ccccc3)cc2-c2ccnc(NCCNS(=O)(=O)c3ccc(Cl)cc3)c2)c1`, the GI50 is 2.98 µM in the experiment with MCF7 breast; 4.29 µM in the experiment with NCI/ADR-RES ovarian; 3.81 µM in the experiment with MDA-MB-435; 5.73 µM with HS 578T breast; 2.52 µM with T-47D breast; 3.55 µM with MDA-MB-231 breast. In addition, the TGI in the experiment on MCF7 breast was 18.4 µM; in the experiment with NCI/ADR-RES ovarian it was over 100 µM; in the experiment with MDA-MB-435, over 100 µM; with HS 578T breast, over 100 µM; in the experiment on T-47D breast it was 8.66 µM; with MDA-MB-231 breast it was over 100 µM.
`O=[N+]([O-])c1cnc(Sc2ccncn2)c([N+](=O)[O-])c1`: the GI50 was 5.96 µM in the experiment with MCF7 breast; 16.6 µM in the experiment with NCI/ADR-RES ovarian; 4.91 µM with MDA-MB-435; 19.2 µM with HS 578T breast; 1.78 µM in the experiment on T-47D breast; 14.8 µM in the experiment with MDA-MB-231 breast. In addition, the TGI was found to be 24.9 µM in the experiment with MCF7 breast; 33.7 µM in the experiment with NCI/ADR-RES ovarian; 18.1 µM with MDA-MB-435; 57.2 µM in the experiment on HS 578T breast; 3.8 µM in the experiment with T-47D breast; 28.4 µM in the experiment on MDA-MB-231 breast.
With `CC(C)C[C@@H](NC(=O)[C@@H](Cc1ccccc1)NC(=O)c1cnccn1)B1O[C@H]2[C@H](O)[C@@H](C(=O)NCCCC[C@@H]3NC(=O)[C@@H](Cc4ccccc4)NC(=O)[C@H](CC(=O)O)NC(=O)CNC(=O)[C@H](CCCN=C(N)N)NC3=O)O[C@@H](CN)[C@H]2O1`, the GI50 in the experiment with MCF7 breast was 0.00413 µM and 0.005 µM; with NCI/ADR-RES ovarian, 0.0984 µM and 0.0844 µM; in the experiment on MDA-MB-435, 0.00287 µM and < 0.005 µM; with HS 578T breast, 0.00413 µM and 0.005 µM; in the experiment with T-47D breast, 0.00598 µM and 0.005 µM; in the experiment on MDA-MB-231 breast, 0.0124 µM and 0.00828 µM. Also, the TGI was 0.789 µM in the experiment with MCF7 breast; 0.586 µM with NCI/ADR-RES ovarian; 0.00891 µM and < 0.005 µM with MDA-MB-435; 0.0648 µM and 0.025 µM in the experiment with T-47D breast; 0.0574 µM and 0.0692 µM with MDA-MB-231 breast.
Take `COc1ccc(C(=O)/C=C/c2ccc(O)c(O)c2F)c(OC)c1`: the GI50 in the experiment with MCF7 breast was 0.334 µM; with NCI/ADR-RES ovarian, 4.16 µM; with MDA-MB-435 it was 2.51 µM; with HS 578T breast, 7.34 µM; in the experiment on T-47D breast, 3.21 µM. Moreover, the TGI with MCF7 breast was 9.83 µM and 13.1 µM; with NCI/ADR-RES ovarian, 67.7 µM and > 100 µM; in the experiment with MDA-MB-435, 75 µM and 44.1 µM; in the experiment on HS 578T breast it was 75 µM and > 100 µM; in the experiment with T-47D breast, 75 µM and > 100 µM; in the experiment on MDA-MB-231 breast, 38.1 µM and 42.1 µM.
In the case of `OCCN(CCO)N=Nc1ccc(-c2nc3ccccc3[nH]2)cc1`, the GI50 with NCI/ADR-RES ovarian was 34 µM; with MDA-MB-435 it was 18.5 µM; with HS 578T breast, 23.5 µM; in the experiment with T-47D breast, 19.8 µM; with MDA-MB-231 breast it was 31.3 µM. In addition, the TGI in the experiment on NCI/ADR-RES ovarian was determined as 58 µM; in the experiment with MDA-MB-435 it was 38.8 µM; in the experiment with HS 578T breast, 72.8 µM; in the experiment on T-47D breast it was 53.1 µM; with MDA-MB-231 breast it was 97.8 µM.
For the molecule `CCC1=C(C)/C(=C/c2[nH]c(C)c(C(=O)CCCCC(=O)OC)c2C)N=C1c1ccc[nH]1`, the GI50 with MCF7 breast was 12.1 µM; with NCI/ADR-RES ovarian, 33.2 µM; in the experiment with MDA-MB-435, 10.4 µM; in the experiment on HS 578T breast, 14.7 µM; with T-47D breast it was 3.45 µM; in the experiment on MDA-MB-231 breast, 4.6 µM. Also, the TGI in the experiment with MCF7 breast was 46.4 µM; with NCI/ADR-RES ovarian, over 96.4 µM; with MDA-MB-435, 46.1 µM; in the experiment with HS 578T breast, 50.4 µM; in the experiment with T-47D breast, 13.8 µM; in the experiment with MDA-MB-231 breast, 46.4 µM.
Consider `COc1ccc(C(=O)Cn2c(C(=O)c3ccc(OC)cc3)nc3ccccc32)cc1`, for which the GI50 is 1.36 µM in the experiment on MCF7 breast; 0.671 µM with NCI/ADR-RES ovarian; 0.284 µM in the experiment with MDA-MB-435; 2.14 µM with HS 578T breast; 3.39 µM in the experiment on T-47D breast; 9.23 µM in the experiment on MDA-MB-231 breast. The TGI with MCF7 breast was over 100 µM; in the experiment with NCI/ADR-RES ovarian it was 4.06 µM; with MDA-MB-435 it was over 34.4 µM; with HS 578T breast, over 28.5 µM; in the experiment on T-47D breast, over 100 µM; in the experiment with MDA-MB-231 breast, over 100 µM.
In the case of `CN(C)/[N+]([O-])=N/Oc1cc(Nc2cccc(C(=O)O)c2)c([N+](=O)[O-])cc1[N+](=O)[O-]`, the GI50 with MCF7 breast was 36.8 µM; in the experiment with NCI/ADR-RES ovarian, over 100 µM; in the experiment on MDA-MB-435 it was over 100 µM; with HS 578T breast, 34.7 µM; in the experiment on MDA-MB-231 breast it was over 100 µM. Further, the TGI with MCF7 breast, in the experiment on NCI/ADR-RES ovarian, in the experiment with MDA-MB-435, with HS 578T breast and in the experiment with MDA-MB-231 breast was over 100 µM throughout.
`CNc1ccccc1C(=O)N/N=C/C=C/c1ccccc1`: the GI50 is 0.49 µM in the experiment with MCF7 breast; 0.568 µM with NCI/ADR-RES ovarian; 1.97 µM in the experiment with HS 578T breast; 3.48 µM with T-47D breast; 4.11 µM in the experiment on MDA-MB-231 breast. For the same molecule, the TGI was over 100 µM with MCF7 breast; over 100 µM in the experiment with NCI/ADR-RES ovarian; over 100 µM in the experiment with HS 578T breast; over 86.9 µM with T-47D breast; 62 µM in the experiment with MDA-MB-231 breast.
For `O=C1OC(c2ccco2)=N/C1=C\c1ccc(Cl)c(Cl)c1`, the TGI in the experiment with MCF7 breast, in the experiment with MDA-MB-435, in the experiment on HS 578T breast, with T-47D breast and in the experiment with MDA-MB-231 breast was over 100 µM in each case.
As to `Oc1ccc(C(c2ccccc2)(c2ccccc2)c2ccccc2)cc1`, the GI50 in the experiment on MCF7 breast is 10.3 µM; in the experiment with NCI/ADR-RES ovarian it was 15 µM; in the experiment on MDA-MB-435, 19.9 µM; with HS 578T breast, 17.6 µM; in the experiment on MDA-MB-231 breast, 16.7 µM. Further, the TGI in the experiment with MCF7 breast worked out at 34.3 µM; in the experiment with NCI/ADR-RES ovarian, 28.6 µM; with MDA-MB-435, 38.3 µM; in the experiment with HS 578T breast, 65.1 µM; with MDA-MB-231 breast, 34.2 µM.
As to `CN(N=O)C(=O)Nc1c[nH]c(=O)[nH]c1=O`, the TGI with MCF7 breast, in the experiment with NCI/ADR-RES ovarian, in the experiment with MDA-MB-435, in the experiment with T-47D breast and in the experiment on MDA-MB-231 breast was over 100 µM each time.
As for `Cc1ccc(C)c(NC(=O)C(=O)C2C(=O)C3=C(CC2(C)C)Nc2ccccc2S3)c1` (configuration not stated), the TGI in the experiment with MCF7 breast, with NCI/ADR-RES ovarian, with MDA-MB-435, in the experiment on HS 578T breast and in the experiment on MDA-MB-231 breast was over 100 µM each time.
